Where two headings read alike, the source gives them in different places.
Molecular target: T1, hTG2 (Homo sapiens, UniProt P21980)
T1 sequence (P21980 1-687): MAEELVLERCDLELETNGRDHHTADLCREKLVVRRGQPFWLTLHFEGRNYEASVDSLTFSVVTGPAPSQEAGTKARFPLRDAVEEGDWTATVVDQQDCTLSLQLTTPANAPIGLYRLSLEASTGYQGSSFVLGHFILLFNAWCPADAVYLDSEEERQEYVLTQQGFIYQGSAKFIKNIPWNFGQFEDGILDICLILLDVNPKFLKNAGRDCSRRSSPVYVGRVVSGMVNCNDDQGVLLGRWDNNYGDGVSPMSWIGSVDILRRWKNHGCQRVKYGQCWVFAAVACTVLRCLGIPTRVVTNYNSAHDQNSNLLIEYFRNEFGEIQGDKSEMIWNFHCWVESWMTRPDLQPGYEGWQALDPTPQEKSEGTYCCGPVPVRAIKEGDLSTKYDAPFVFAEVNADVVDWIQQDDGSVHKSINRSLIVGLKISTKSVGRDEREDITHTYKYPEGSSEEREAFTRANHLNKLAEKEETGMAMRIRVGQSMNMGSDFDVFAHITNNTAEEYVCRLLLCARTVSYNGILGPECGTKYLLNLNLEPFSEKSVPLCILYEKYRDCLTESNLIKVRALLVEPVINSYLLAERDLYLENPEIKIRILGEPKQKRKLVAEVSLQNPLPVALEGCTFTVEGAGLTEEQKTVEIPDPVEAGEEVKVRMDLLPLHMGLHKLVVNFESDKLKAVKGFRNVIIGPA
Assay: biochemical
Experimental: The ability of the compounds to inhibit TG2 transamidase activity and the kinetics of TG2 inhibition were investigated using a colorimetric activity assay, as follows:
Colorimetric transamidase activity assay. The activities of hTG1, hTG2 and hTG6 were measured via a colorimetric assay using the chromogenic substrate Cbz-Glu(γ-p-nitrophenyl ester)Gly (AL5), as described (Leblanc, A. et al., “Kinetic studies of guinea pig liver transglutaminase reveal a general-base-catalyzed deacylation mechanism.” Biochemistry 2001, 40 (28), 8335-8342). Assays were conducted at 25° C. in 50 mM MOPS buffer (pH 6.95) containing 7.5 mM CaCl2. […] The substrate AL5 was prepared in as a stock solution in DMSO such that the final concentration of this co-solvent was constant at 2.5% v/v. Stock solutions of the inhibitors were made in water ranging in concentration from 100-500 μM. The reaction was initiated with the addition of enzyme, 0.10 μM hTG1, 0.25 μM hTG2 (4.6 mU/mL) or 0.32 μM hTG6. Formation of hydrolysis product, p-nitrophenolate (pNP), was monitored at 405 nm in a polystyrene 96-well microplate using a BioTek Synergy 4 plate reader. The observed first-order rate constants of inactivation (kobs) were determined via non-linear regression fit to a mono-exponential model (Eqn 1) of absorbance versus time curves. These rate constants (kobs) were in turn fit to a saturation kinetics model (Eqn 2), by non-linear regression, providing the kinetic parameters kinact and KI, as previously described by Stone and Hofsteenge (Stone, S. R. and Hofsteenge, J., “Specificity of activated human protein C.” Biochem. J. 1985, 230 (2), 497-502). […] Experiments were completed in triplicate at minimum.
Fitting of this time-dependent inactivation to a monoexponential equation gave first-order rate constants, kobs. […] In some cases, the kinetic data were fitted to a linear double reciprocal equation.

[1] = values determined using a double-reciprocal analysis, read-out: KI (converted)
[2] = values determined using a double-reciprocal analysis, read-out: kinact (converted)
[3] = values determined using a double-reciprocal analysis, read-out: kinact/KI (converted)
[4] = fit to saturation kinetics model, 25° C., pH 6.95, 100 μM AL5, read-out: KI (converted)
[5] = fit to saturation kinetics model, 25° C., pH 6.95, 100 μM AL5, read-out: kinact (converted)
[6] = fit to saturation kinetics model, 25° C., pH 6.95, 100 μM AL5, read-out: kinact/KI (converted)

Row | Compound | Ki [1] [µM] | Ki [4] [µM] | kinact [5] [s⁻¹] | kinact/KI [6] [M⁻¹ s⁻¹] | other results
1 | C=CC(=O)NCCCC[C@H](NC(=O)c1ccccn1)C(=O)N1CCN(C(=O)c2cccc3ccccc23)CC1 [Inhibitor 18, (S)-N-(1-(4-(1-Naphthoyl)piperazin-1-yl)-6-acrylamido-1-oxohexan-2-yl)picolinamide] | 41.4 ± 3.8 | – | – | – | kinact [2]: 0.0065 s⁻¹; kinact/KI [3]: 160 M⁻¹ s⁻¹
2 | C=CC(=O)NCCCC[C@H](NC(=O)c1cccnc1)C(=O)N1CCN(C(=O)c2cccc3ccccc23)CC1 [Inhibitor 19, (S)-N-(1-(4-(1-naphthoyl)piperazin-1-yl)-6-acrylamido-1-oxohexan-2-yl)nicotinamide] | 25.4 ± 2.8 | – | – | – | kinact [2]: 0.00983 s⁻¹; kinact/KI [3]: 388 M⁻¹ s⁻¹
3 | C=CC(=O)NCCCC[C@H](NC(=O)c1ccncc1)C(=O)N1CCN(C(=O)c2cccc3ccccc23)CC1 [Inhibitor 20, (S)-N-(1-(4-(1-naphthoyl)piperazin-1-yl)-6-acrylamido-1-oxohexan-2-yl)isonicotinamide] | 19.3 ± 4.3 | – | – | – | kinact [2]: 0.004 s⁻¹; kinact/KI [3]: 212 M⁻¹ s⁻¹
4 | C=CC(=O)NCCCC[C@H](NC(=O)c1nccn1C)C(=O)N1CCN(C(=O)c2cccc3ccccc23)CC1 [Inhibitor 21, (S)-N-(1-(4-(1-naphthoyl)piperazin-1-yl)-6-acrylamido-1-oxohexan-2-yl)-1-methyl-1H-imidazole-2-carboxamide] | – | 15.7 ± 4.5 | 0.003 | 192 | –
5 | C=CC(=O)NCCCC[C@H](NC(=O)c1cn(C)cn1)C(=O)N1CCN(C(=O)c2cccc3ccccc23)CC1 [Inhibitor 22, (S)-N-(1-(4-(1-naphthoyl)piperazin-1-yl)-6-acrylamido-1-oxohexan-2-yl)-1-methyl-1H-imidazole-4-carboxamide] | – | 22.3 ± 5 | 0.00467 | 210 | –
6 | C=CC(=O)NCCCC[C@H](NC(=O)C1C2CC3CC(C2)CC1C3)C(=O)N1CCN(C(=O)c2cccc3ccccc23)CC1 (stereo partly drawn) [Inhibitor 33, (1S,3S,5S,7S)-N-((S)-1-(4-(1-naphthoyl)piperazin-1-yl)-6-acrylamido-1-oxohexan-2-yl)adamantane-2-carboxamide] | – | 15.3 ± 0.3 | 0.00383 | 248 | –
7 | C=CC(=O)NCCCC[C@H](NC(=O)CC1CCCCC1)C(=O)N1CCN(C(=O)c2cccc3ccccc23)CC1 [Inhibitor 34, (S)-N-(6-(4-(1-naphthoyl)piperazin-1-yl)-5-(2-cyclohexylacetamido)-6-oxohexyl)acrylamide] | – | 12.2 ± 2.4 | 0.00433 | 348 | –
8 | C=CC(=O)NCCCC[C@H](NC(=O)C1CCCCC1)C(=O)N1CCN(C(=O)c2cccc3ccccc23)CC1 [Inhibitor 35, (S)-N-(1-(4-(1-naphthoyl)piperazin-1-yl)-6-acrylamido-1-oxohexan-2-yl)cyclohexanecarboxamide] | – | 9.9 ± 1.3 | 0.0055 | 560 | –
9 | C=CC(=O)NCCCC[C@H](NC(=O)C1CC1)C(=O)N1CCN(C(=O)c2cccc3ccccc23)CC1 [Inhibitor 36, (S)-N-(1-(4-(1-naphthoyl)piperazin-1-yl)-6-acrylamido-1-oxohexan-2-yl)cyclopropanecarboxamide] | – | 10.6 ± 3.6 | 0.017 | 1610 | –
10 | C=CC(=O)NCCCC[C@H](NC(=O)C(C)(C)C)C(=O)N1CCN(C(=O)c2cccc3ccccc23)CC1 [Inhibitor 37, (S)-N-(6-(4-(1-naphthoyl)piperazin-1-yl)-6-oxo-5-pivalamidohexyl)acrylamide] | – | 8.8 ± 3.6 | 0.00817 | 937 | –
11 | C=CC(=O)NCCCC[C@H](NC(=O)CC(C)C)C(=O)N1CCN(C(=O)c2cccc3ccccc23)CC1 [Inhibitor 38, (S)-N-(1-(4-(1-naphthoyl)piperazin-1-yl)-6-acrylamido-1-oxohexan-2-yl)-3-methylbutanamide] | – | 9.7 ± 1.9 | 0.0107 | 1110 | –
12 | C=CC(=O)NCCCC[C@H](NC(=O)C(C)C)C(=O)N1CCN(C(=O)c2cccc3ccccc23)CC1 [Inhibitor 39, (S)-N-(6-(4-(1-naphthoyl)piperazin-1-yl)-5-isobutyramido-6-oxohexyl)acrylamide] | – | 9.9 ± 1.4 | 0.0108 | 1080 | –
13 | C=CC(=O)NCCCC[C@H](NC(=O)CC)C(=O)N1CCN(C(=O)c2cccc3ccccc23)CC1 [Inhibitor 40, (S)-N-(6-(4-(1-naphthoyl)piperazin-1-yl)-6-oxo-5-propionamidohexyl)acrylamide] | – | 5.1 ± 1 | 0.00883 | 1720 | –
14 | C=CC(=O)NCCCC[C@H](NC(C)=O)C(=O)N1CCN(C(=O)c2cccc3ccccc23)CC1 [Inhibitor 41, (S)-N-(6-(4-(1-naphthoyl)piperazin-1-yl)-5-acetamido-6-oxohexyl)acrylamide] | 33 ± 14.5 | – | – | – | kinact: 0.0242 s⁻¹; kinact/KI: 735 M⁻¹ s⁻¹
15 | C=CC(=O)NCCCC[C@H](NC(=O)c1ccccc1)C(=O)N1CCN(C(=O)c2cccc3ccccc23)CC1 [Inhibitor 61, (S)-N-(1-(4-(1-naphthoyl)piperazin-1-yl)-6-acrylamido-1-oxohexan-2-yl)benzamide] | 12 | 27.6 ± 8.1 | – | – | kinact: 0.0118 s⁻¹; kinact/KI: 983 M⁻¹ s⁻¹; kinact/KI (pH 6.95): 807 M⁻¹ s⁻¹
16 | C=CC(=O)NCCCC[C@H](NC(=O)c1ccccc1F)C(=O)N1CCN(C(=O)c2cccc3ccccc23)CC1 [Inhibitor 62, (S)-N-(1-(4-(1-naphthoyl)piperazin-1-yl)-6-acrylamido-1-oxohexan-2-yl)-2-fluorobenzamide] | – | 10 ± 2.6 | 0.0065 | 657 | –
17 | C=CC(=O)NCCCC[C@H](NC(=O)c1cccc(F)c1)C(=O)N1CCN(C(=O)c2cccc3ccccc23)CC1 [Inhibitor 63, (S)-N-(1-(4-(1-naphthoyl)piperazin-1-yl)-6-acrylamido-1-oxohexan-2-yl)-3-fluorobenzamide] | 9.9 | 13.4 ± 3.5 | 0.0107 | 797 | kinact [2]: 0.0085 s⁻¹; kinact/KI [3]: 860 M⁻¹ s⁻¹
18 | C=CC(=O)NCCCC[C@H](NC(=O)c1ccc(F)cc1)C(=O)N1CCN(C(=O)c2cccc3ccccc23)CC1 [Inhibitor 64, (S)-N-(1-(4-(1-naphthoyl)piperazin-1-yl)-6-acrylamido-1-oxohexan-2-yl)-4-fluorobenzamide] | 11.6 | 16.2 ± 7.5 | 0.015 | 923 | kinact [2]: 0.0117 s⁻¹; kinact/KI [3]: 1010 M⁻¹ s⁻¹
19 | C=CC(=O)NCCCC[C@H](NC(=O)c1ccc2ccccc2c1)C(=O)N1CCN(C(=O)c2cccc3ccccc23)CC1 [Inhibitor 65, (S)-N-(1-(4-(1-naphthoyl)piperazin-1-yl)-6-acrylamido-1-oxohexan-2-yl)-2-naphthamide] | – | 8 ± 1.8 | 0.00483 | 608 | –
20 | C=CC(=O)NCCCC[C@H](NC(=O)c1cccc2ccccc12)C(=O)N1CCN(C(=O)c2cccc3ccccc23)CC1 [Inhibitor 66, (S)-N-(1-(4-(1-naphthoyl)piperazin-1-yl)-6-acrylamido-1-oxohexan-2-yl)-1-naphthamide] | – | 20.3 ± 5.1 | – | – | Ki: 9.3 µM; kinact: 0.00433 s⁻¹; kinact/KI: 458 M⁻¹ s⁻¹; kinact/KI (pH 6.95): 335 M⁻¹ s⁻¹
21 | C=CC(=O)NCCCC[C@H](NC(=O)CCc1ccccc1)C(=O)N1CCN(C(=O)c2cccc3ccccc23)CC1 [Inhibitor 68, (S)-N-(6-(4-(1-naphthoyl)piperazin-1-yl)-6-oxo-5-(3-phenylpropanamido)hexyl)acrylamide] | – | 2.8 ± 0.3 | 0.01 | 3570 | –

Source: patent publication US20240383869A1, “ARYLACETYL INHIBITORS OF TG2 AND USES THEREOF” (UNIVERSITY OF OTTAWA, priority 2021, published 2024)
